This note sets out measurements from patent publication US20260242349A1, “N,N'-SULFONIMIDAMIDES AS ANTICANCER, ANTIINFLAMMATORY, ANTIFIBROTIC AND NEUROPROTECTIVE AGENTS” (Atux Iskay LLC, priority 2023, published 2026).

pIC50: −log10 of the molar value.

This assay deals with D425 medulloblastoma cells. The experiment in a line: Cancer cell viability inhibition (CellTiter-Glo Luminescent Cell Viability Assay). The format is cell-based. The settings on record: 48 hours treatment, CellTiter-Glo luminescence, test range 1-30 uM, read-out: IC50 for D425 cell growth. As to the method: D425 medulloblastoma cells were purchased from SigmaAldrich. D425 meduloblastoma cells were cultured in improved Dulbecco's modified Eagle's medium (DMEM) Richter's modification supplemented with 20% fetal bovine serum and 1% Penicillin-streptomycin. Incubation was performed at 37° C. and 5% CO2.
D425 cells were seeded at 3000-3500 cells/90 ul growth medium per well on 96-well tissue culture plates. Cells were incubated overnight to allow them to recover. Next day cells were treated with tested compounds and incubated for 48 hours.
Cell Proliferation assays in triplicate were performed at each concentration. Compounds test range was 1-30 uM (0, 5, 10, 15, 20, 25, and 30). The compounds were dissolved in DMSO. […]
After treatment, cells were allowed to equilibrate at room temperature for one hour. Cell proliferation was measured by Luminescence quantification using Promega CellTiter-Glo Luminescent Cell Viability Assay. […] Luminescence intensity was measured using the Spectramax i3× plate reader.
The Luminescence intensity data were analyzed using the computer software Graphpad Prism. In the absence of the compound, the luminescence intensity (Lt) in each data set was defined as 100% cell viability. The percent cell in the presence of each compound was calculated according to the following equation: % Cell=L/Lt, were L=the luminescence intensity in the presence of the compound. […]
(ATP-based viability assays read luminescence as a measure of living cells.)

Broadly, the pIC50 is −log10 of the IC50, conventionally taken in molar units. Take `N=S(=O)(Nc1ccc(OC(F)(F)F)cc1)N1CCCC(C2c3ccccc3CCc3ccccc32)C1` (stereo not shown) [Example 2]: the pIC50 is 5.03.
